Laboratory results as given in PMC7429850, “Critical enzymes for biosynthesis of cucurbitacin derivatives in watermelon and their biological significance” (Communications Biology, 2020).

Test system: T1, ACT3 (Cla022713)
T1 construct: plant material in Methods: Number One
Type: biochemical, Citrullus lanatus
Conditions: 10 mM acetyl-CoA, 50 mM sodium phosphate pH 7.4, 30 °C; C16-O-acetylation
Excerpt: acetylation assay, product by HPLC/LC-MS, Michaelis-Menten fit on ACT3 (Cla022713)

Row | SMILES | Km [µM]
1 | CC(=O)OC(C)(C)/C=C/C(=O)[C@](C)(O)[C@H]1[C@H](O)C[C@@]2(C)[C@@H]3CC=C4[C@@H](C[C@H](O)C(=O)C4(C)C)[C@]3(C)C(=O)C[C@]12C [CuB] | 11.8 ± 1.74
2 | CC(C)(O)/C=C/C(=O)[C@](C)(O)[C@H]1[C@H](O)C[C@@]2(C)[C@@H]3CC=C4[C@@H](C[C@H](O)C(=O)C4(C)C)[C@]3(C)C(=O)C[C@]12C [CuD] | 10.4 ± 1.19
3 | CC(=O)OC(C)(C)/C=C/C(=O)[C@](C)(O)[C@H]1[C@H](O)C[C@@]2(C)[C@@H]3CC=C4[C@@H](C=C(O[C@@H]5O[C@H](CO)[C@@H](O)[C@H](O)[C@H]5O)C(=O)C4(C)C)[C@]3(C)C(=O)C[C@]12C [CuE-Glu] | 11.6 ± 1.62
4 | CC(=O)OC(C)(C)/C=C/C(=O)[C@](C)(O)[C@H]1[C@H](O)C[C@@]2(C)[C@@H]3CC=C4[C@@H](C=C(O)C(=O)C4(C)C)[C@]3(C)C(=O)C[C@]12C [CuE] | 7.63 ± 4.83
5 | CC(C)(O)/C=C/C(=O)[C@](C)(O)[C@H]1[C@H](O)C[C@@]2(C)[C@@H]3CC=C4[C@@H](C=C(O)C(=O)C4(C)C)[C@]3(C)C(=O)C[C@]12C [CuI] | 8.62 ± 0.95
